The values below are quoted from earlier work in patent publication US20150125548A1, “COMBINATION NUTRITIONAL AND NUTRACEUTICAL PRODUCTS” (Requis Pharmaceuticals Inc., priority 2011, published 2015).

One data set deals with tryptophan hydroxylase (Mus musculus, UniProt Q8CGV2). As to conditions: 10 mM magnesium chloride added together with 1 mM ATP; 100,000 g supernatant from mouse midbrain.
The conditions of data set [1]: after absorption.

Chain of tryptophan hydroxylase (Q8CGV2 whole entry): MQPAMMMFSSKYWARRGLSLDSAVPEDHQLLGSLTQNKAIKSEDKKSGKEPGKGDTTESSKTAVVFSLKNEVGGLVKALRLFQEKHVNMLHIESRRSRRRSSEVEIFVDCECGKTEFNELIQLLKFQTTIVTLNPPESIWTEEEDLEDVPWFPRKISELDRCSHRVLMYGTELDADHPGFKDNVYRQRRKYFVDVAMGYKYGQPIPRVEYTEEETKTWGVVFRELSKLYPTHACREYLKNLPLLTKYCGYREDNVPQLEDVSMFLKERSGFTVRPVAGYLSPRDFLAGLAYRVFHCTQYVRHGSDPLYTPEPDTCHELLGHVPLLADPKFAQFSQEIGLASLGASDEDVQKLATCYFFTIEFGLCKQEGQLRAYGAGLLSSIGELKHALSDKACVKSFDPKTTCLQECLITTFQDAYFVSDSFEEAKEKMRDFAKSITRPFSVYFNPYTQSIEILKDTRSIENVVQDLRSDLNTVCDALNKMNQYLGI

For `[Cl-].[Cl-].[Mg+2]` [magnesium chloride], the “increase of enzyme activity above control” value on tryptophan hydroxylase is listed as 50-70%.

In the case of `N[C@@H](Cc1c[nH]c2ccccc12)C(=O)O` [tryptophan, (2S)-2-amino-3-(1H-indol-3-yl)propanoic acid], the “fraction present in blood as the free amino acid (rest bound to plasma proteins)” value in data set [1] is given as “around 20%”.
